Experiments:
Type in all cases: in vivo
Diabrotica balteata = Diabrotica balteata spray test; conditions: Diabrotica balteata, in Triticum aestivum, 168 h, after 7 days, larvae on wheat seeds, read-out: efficacy (seedlings grown up); for pest or weed control at 80 µg/disc, 250 g/ha: 80 μg/well (=250 g/ha); for pest or weed control at 160 µg/disc, 500 g/ha: 160 μg/well (=500 g/ha)
Outline: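 Germinated wheat seeds (5 per well, 1 day on agar) sprayed with compound diluted in water containing 1000 ppm emulsifier, then infested with 10–20 D. balteata larvae. Efficacy scored after 7 days: 100% = seedlings like untreated uninfested control, 0% = no seedlings grown.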

Ctenocephalides felis [1] = test: Ctenocephalides felis oral test; conditions: 48 h, 100 ppm in cattle blood, after 2 days, adult unfed cat fleas
Outline: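 About 20 unfed adult cat fleas feed through parafilm on cattle blood dosed with compound from a DMSO stock. Blood chamber at 37° C, fleas at room temperature. Percent mortality scored after 2 days.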

Nilaparvata lugens = Nilaparvata lugens spray test; conditions: 336 h, after 14 days, rice plants
Protocol: Nilaparvata lugens—Spray Test
(§1) To produce a suitable preparation of active compound, 1 part by weight of active compound is mixed with the stated amount of solvents and is diluted with water, containing an emulsifier concentration of 1000 ppm, to the desired concentration. Further test concentrations are prepared by dilution with emulsifier containing water.
Rice plants (Oryza sativa) are sprayed with a preparation of the active ingredient of the desired concentration and the plants are infested with the brown planthopper (Nilaparvata lugens).
After 14 days mortality in % is determined. 100% means all planthoppers have been killed and 0% means none of the planthoppers have been killed.

Nezara viridula = Nezara viridula spray test; conditions: 96 h, after 4 days, larvae on barley plants
Outline: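 Barley plants infested with Nezara viridula larvae were sprayed with compound diluted in water containing 1000 ppm emulsifier. Percent mortality was scored 4 days later, where 100% means all bugs killed and 0% none.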

[2] = tested on: Aedes aegypti strain MONHEIM; test: Aedes aegypti test (AEDSAE surface treatment & contact assay); conditions: 24 hours after contact, read-out: efficacy (mortality); for mortality at 4 mg/m2: surface concentration 4 mg/m^2, exposure 30 minutes; for mortality at 20 mg/m2: surface concentration 20 mg/m^2, exposure 30 minutes
Protocol: Aedes Aegypti Test (AEDSAE Surface Treatment & Contact Assay)
(§2) Solvent: Aceton+2000 ppm rapeseed oil methyl ester (RME)
(§3) In order to produce a sufficient, active ingredient containing solution it is necessary to solve the test compound in the solvent-mix (acetone at 2 mg/ml/RME 2000 ppm). This solution is pipetted onto a glazed tile and after evaporation of the acetone, adult mosquitoes of the species Aedes aegypti strain MONHEIM are placed onto the dried surface. The exposure time is 30 minutes.
(§4) Mortality in percent (%) is determined 24 hours after contact of the insects to the treated surface. 100% mortality means that all tested insects are dead, whereas 0% means that no insect died.

Spodoptera frugiperda = Spodoptera frugiperda spray test; conditions: 168 h, after 7 days, larvae on maize leaf sections
Outline: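 Maize leaf sections were sprayed with compound formulated in solvent and diluted in water containing 1000 ppm emulsifier, then infested with fall armyworm larvae after drying. Percent mortality was scored after 7 days (100% = all caterpillars dead, 0% = none).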

Boophilus microplus = Boophilus microplus injection test; conditions: Rhipicephalus microplus, 168 h; 20 μg/animal injected into the abdomen; adult engorged female ticks; egg deposition after 7 days; read-out: efficacy (infertile eggs)
Outline: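 Five engorged adult female ticks received a 1 μl abdominal injection of compound in DMSO. They were then held in a climate chamber, with egg deposition checked after 7 days. Unclear eggs were kept until hatching at about 42 days, and efficacy was scored as the percentage of infertile eggs.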

Ctenocephalides felis [3] = test: Ctenocephalides felis in-vitro contact test, adult cat flea; conditions: 5 μg/cm^2 (=500 g/ha), after 48 hours, adult cat fleas, read-out: efficacy (fleas dead or moribund)
Protocol: Ctenocephalides Felis—In-Vitro Contact Tests Adult Cat Flea 9 mg compound is solved in 1 ml acetone and diluted with acetone to the desired concentration. 250 μl of the test solution is filled in 25 ml glass test tubes and homogeneously distributed on the inner walls by rotation and tilting on a shaking device (2 h at 30 rpm). With a compound concentration of 900 ppm, an inner surface of 44.7 cm^2 and a homogeneous distribution, a dose of 5 μg/cm^2 is achieved. After the solvent has evaporated, each test tube is filled with 5-10 adult cat fleas (Ctenocephalides felis), closed with a perforated lid and incubated in a lying position at room temperature and relative humidity. After 48 hours efficacy is determined. The fleas are patted on the ground of the tubes and are incubated on a heating plate at 45-50° C. for at most 5 minutes. Immotile or uncoordinated moving fleas, which are not able to escape the heat by climbing upwards, are marked as dead or moribund. […] An efficacy of 100% means all fleas are dead or moribund; 0% means no fleas are dead or moribund.

Myzus persicae [4] = test: Myzus persicae oral test; conditions: 120 h, 4 ppm, after 5 days
Outline: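 Aphid mortality (%) was recorded 5 days after a mixed Myzus persicae population began sucking, through parafilm, on compound solutions (acetone stock diluted with water) combined with sugar-supplemented IPL41 medium.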

[5] = tested on: Anopheles funestus strain FUMOZ-R; test: Anopheles funestus test (ANPHFU surface treatment & contact assay); conditions: surface concentration 20 mg/m^2, exposure 30 minutes, 24 hours after contact, read-out: efficacy (mortality)
Protocol: Anopheles funestus Test (ANPHFU Surface Treatment & Contact Assay)
as §2
as §3, with “Anopheles funestus” for “Aedes aegypti”, “FUMOZ-R (Hunt et al., Med. Vet. Entomol. 2005 September; 19(3): 271-275)” for “MONHEIM”
as §4

Myzus persicae [6] = test: Myzus persicae spray test; conditions: foliar, 120 h, after 5 days, Chinese cabbage leaf disks
Protocol: Myzus persicae—Spray Test
as §1
Chinese cabbage (Brassica pekinensis) leaf disks infected with all instars of the green peach aphid (Myzus persicae), are sprayed with a preparation of the active ingredient of the desired concentration.
After 5 days mortality in % is determined. 100% means all aphids have been killed and 0% means none of the aphids have been killed.

[7] = tested on: Culex quinquefasciatus strain P00; test: Culex quinquefasciatus test (CULXFA surface treatment & contact assay); conditions: 24 hours after contact, read-out: efficacy (mortality); for mortality at 20 mg/m2: surface concentration 20 mg/m^2, exposure 30 minutes
Protocol: Culex Quinquefasciatus Test (CULXFA Surface Treatment & Contact Assay)
as §2
as §3, with “Culex quinquefasciatus” for “Aedes aegypti”, “P00” for “MONHEIM”
as §4

Structure (SMILES)	pest or weed control at 80 µg/disc, 250 g/ha (Diabrotica balteata)	mortality at 100 ppm (Ctenocephalides felis [1])	mortality at 500 g/ha (Nilaparvata lugens)	mortality at 500 g/ha (Nezara viridula)	mortality at 4 mg/m2 [2]	pest or weed control at 160 µg/disc, 500 g/ha (Diabrotica balteata)	mortality at 100 g/ha (Spodoptera frugiperda)	mortality at 500 g/ha (Spodoptera frugiperda)	pest or weed control at 0.02 mg (Boophilus microplus)	pest or weed control at 5 µg/cm2 (Ctenocephalides felis [3])	mortality at 4 ppm (Myzus persicae [4])	mortality at 100 g/ha (Nezara viridula)	mortality at 20 mg/m2 [2]	mortality at 20 mg/m2 [5]	mortality at 100 g/ha (Myzus persicae [6])	mortality at 20 mg/m2 [7]	mortality at 500 g/ha (Myzus persicae [6]; 500 g/ha)	mortality at 4 mg/m2 ([7]; surface concentration 4 mg/m^2, exposure 30 minutes)
CC[C@H](NC(=O)c1cc(C(F)(F)F)cc(C(F)(F)F)c1)c1ncnn1-c1ccc(NC(=O)C2CC2)cn1 [Example I-094]	100%	100%	100%	100%														
C[C@H](NC(=O)c1cc(Cl)cc(C(F)(F)F)c1)c1ncnn1-c1ccc(OCC(F)(F)F)cn1 [Example I-039, 3-chloro-N-[(1S)-1-{1-[5-(2,2,2-trifluoroethoxy)pyridin-2-yl]-1H-1,2,4-triazol-5-yl}ethyl]-5-(trifluoromethyl)benzamide]	100%	100%	100%		90 to 100%	100%	100%	100%	100%									
C[C@H](NC(=O)c1cc(Cl)cc(C(F)(F)F)c1)c1ncnn1-c1ccc(C(=O)NCC(F)(F)F)cn1 [Example I-078]	100%	100%	100%	100%		80%	100%	100%	100%	90%	100%	90%						
CC(NC(=S)c1cc(Cl)cc(C(F)(F)F)c1)c1ncnn1-c1ccc(C#N)cn1 (stereo in doubt) [Example I-080, 3-chloro-N-{(1R)-1-[1-(5-cyanopyridin-2-yl)-1H-1,2,4-triazol-5-yl]ethyl}-5-(trifluoromethyl)benzenecarbothioamide]	100%	100%	100%	100%		80%	100%	100%	100%	100%		100%						
CC[C@H](NC(=O)c1cc(C(F)(F)F)cc(C(F)(F)F)c1)c1ncnn1-c1ccc([N+](=O)[O-])cn1 [Example I-069]			70%			100%		100%	100%									
C[C@H](NC(=O)c1cc(Cl)cc(C(F)(F)F)c1)c1ncnn1-c1ccc(N)cn1 [Example I-030, N-{(1S)-1-[1-(5-aminopyridin-2-yl)-1H-1,2,4-triazol-5-yl]ethyl}-3-chloro-5-(trifluoromethyl)benzamide]	100%	100%		100%		80%	83%	100%	100%		100%		90 to 100%	90 to 100%	90%	90 to 100%		
CC[C@H](NC(=O)c1cc(Cl)cc(OC(F)(F)F)c1)c1ncnn1-c1ccc(C#N)cn1 [Example I-070]		80%	100%				100%	100%	100%									
CC(=O)Nc1ccc(-n2ncnc2[C@H](C)NC(=O)c2cc(Cl)cc(C(F)(F)F)c2)nc1 [Example I-033]	100%	100%		100%	90 to 100%	100%	100%	100%	100%	100%	100%		90 to 100%	90 to 100%	100%	90 to 100%	100%	90 to 100%

From patent US12171229B2, “Heteroaryl-triazole and heteroaryl-tetrazole compounds as pesticides” (BAYER AKTIENGESELLSCHAFT, priority 2018, dated 2024)
